Values of other authors in US20070213270A1, “PEPTIDE YY FORMULATIONS HAVING INCREASED STABILITY AND RESISTANCE TO MICROBIAL AGENTS” (priority 2004, published 2007).

How the values were obtained:
[1] = aqueous solution at physiologic pH

## 2-alkyl-4-hydroxyquinolines [pyo compound]
Ciliary motility
  concentration producing ciliostasis / inhibiting ciliary motility: 50 µg/mL

## CC(C)CC(N)B(O)O (centres unmarked) [boro-leucine]
aminopeptidases
  effectiveness in enzyme inhibition relative to bestatin: more than 100 times
  effectiveness in enzyme inhibition relative to puromycin: more than 1000 times

## CCN(CC)/[N+]([O-])=N/O.CCNCC [diethylamine/NO]
[1]
  rate of NO release: < 3 min

## NCCN(CCN)/[N+]([O-])=N/O [diethylenetriamine/NO (DETANO), diethylenetriamine/NO]
[1]
  rate of NO release: approximately 20 hours
